Several values for one entry are separate records, joined by “and”; a condition that tells them apart may be missing. Equal entries are not always repeated. Where two headings read alike, the source gives them in different places.
How the values were obtained:
B-RafV600E = test system: B-RafV600E; design: method as in selleckchem.com; settings: ref selleckchem.com, cited from earlier work
[1] = design: method as in Selleck L1300 library file; settings: ref Selleck L1300 library file, cited from earlier work
[2] = test system: TMPRSS2-HiBiT-BEAS-2B cells
SARS-CoV-2 pseudovirus [3] = assay: microbe, parasite or virus in culture; type: cell-based; settings: for IC50: Severe acute respiratory syndrome-related coronavirus, Caco-2, read-out: In vitro IC50 (viral entry)
[4] = human, cited from earlier work
in vitro = settings: human
TMPRSS2 = TMPRSS2 (Homo sapiens, UniProt O15393); assay: TMPRSS2 activity assay (Boc-Gln-Ala-Arg-MCA fluorescence); type: biochemical; design: purchased LSBio; settings: replicates
Experimental: Fluorescence (380-15 nm excitation/470-20 nm emission) of the samples was monitored over 4:45 h and the slope of the curves was calculated by linear regression analysis and used as output for TMPRSS2 activity.

SARS-CoV-2 pseudovirus [5] = type: cell-based

TMPRSS2, sequence (O15393 106-492): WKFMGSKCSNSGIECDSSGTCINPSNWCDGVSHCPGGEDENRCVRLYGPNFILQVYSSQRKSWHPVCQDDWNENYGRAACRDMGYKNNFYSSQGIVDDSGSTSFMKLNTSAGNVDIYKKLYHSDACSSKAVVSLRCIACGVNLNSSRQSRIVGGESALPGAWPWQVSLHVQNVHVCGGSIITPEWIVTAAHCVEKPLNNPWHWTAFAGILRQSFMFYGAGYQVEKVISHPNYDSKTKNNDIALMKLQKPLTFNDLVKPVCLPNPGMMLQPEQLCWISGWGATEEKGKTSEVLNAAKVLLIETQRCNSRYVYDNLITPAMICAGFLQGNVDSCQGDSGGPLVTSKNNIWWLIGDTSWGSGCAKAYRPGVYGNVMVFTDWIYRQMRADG

For `CCCS(=O)(=O)Nc1ccc(F)c(C(=O)c2c[nH]c3ncc(-c4ccc(Cl)cc4)cc23)c1F` [Vemurafenib (PLX4032, RG7204), Vemurafenib], the IC50 (B-RafV600E; cell-free assay) is listed as 0.031 µM, the “selectivity for B-RafV600E over wild-type B-Raf” value (B-RafV600E; enzymatic assays) is listed as 10 fold and the “DMSO (mM)Max Solubility” value [1] is listed as 197.99 mM. The “DMSO (mg/mL)Max Solubility” value [1] was 97.00 mg/mL and the “water (mg/mL)Max Solubility” value ([1]; water) was under 1 mg/mL.

For `Cc1nc(C(=O)NCC(=O)O)c(O)c2ccc(Oc3ccccc3)cc12` [Roxadustat (FG-4592), Roxadustat], the “DMSO (mM)Max Solubility” value [1] is listed as 198.67 mM, the “DMSO (mg/mL)Max Solubility” value [1] is listed as 70.00 mg/mL and the “water (mg/mL)Max Solubility” value ([1]; water) is listed as under 1 mg/mL.

For `C[C@H]1O[C@H](O[C@H]2[C@H](O)[C@@H](O)[C@@H](O[C@H]3[C@H](O)[C@@H](O)C(O)O[C@@H]3CO)O[C@@H]2CO)[C@H](O)[C@@H](O)[C@@H]1N[C@H]1C=C(CO)[C@@H](O)[C@H](O)[C@H]1O` (stereo partly drawn) [Acarbose], the “DMSO (mM)Max Solubility” value [1] is listed as 154.89 mM, the “DMSO (mg/mL)Max Solubility” value [1] is listed as 100.00 mg/mL and the “water (mM)Max Solubility” value ([1]; water) is listed as 154.89 mM. For the same molecule, the “water (mg/mL)Max Solubility” value ([1]; water) was 100.00 mg/mL.

In the case of `Cc1coc2c1C(=O)C(=O)c1c-2ccc2c1CCCC2(C)C` [Tanshinone IIA], the “ATP Glo” value ([2]; conc 0.01) is reported as 1.137 and 1.427 and 1.128.

In the case of `COCCOC(=O)C1=C(C)NC(C)=C(C(=O)OC/C=C/c2ccccc2)C1c1cccc([N+](=O)[O-])c1` (stereo not drawn) [Cilnidipine], the “viral entry” value (SARS-CoV-2 pseudovirus [3]) is given as “effective in reducing viral entry”, the IC50 (SARS-CoV-2 pseudovirus [3]) is given as about 3 µM and the Cmax ([4]; 10 mg Oral (QD)) is given as 18.1 nM. The CC50 (in vitro) was over 10 µM.

With `CN(C)C(=O)COC(=O)Cc1ccc(OC(=O)c2ccc(NC(=N)N)cc2)cc1` [Camostat] the “TMPRSS2 activity (FigS9 source data)” value (TMPRSS2; 0.08 µM) was -0.0086 and -0.0028 and 0.0044 and -0.0059, the “TMPRSS2 activity (FigS9 source data)” value (TMPRSS2; 0.4 µM) was -0.037 and -0.0342 and -0.033 and -0.0254 and the “TMPRSS2 activity (FigS9 source data)” value (TMPRSS2; 2 µM) was -0.0401 and -0.0361 and -0.044 and -0.0525. The “signal relative to Vehicle (FigS7 source data)” value (“signal relative to Vehicle” for short) (SARS-CoV-2 pseudovirus [5]) was 0.7432 and 0.6624 and 0.6548.

For `CNC(=O)c1ccccc1Sc1ccc2c(/C=C/c3ccccn3)n[nH]c2c1` [Axitinib], the “DMSO (mM)Max Solubility” value [1] is listed as 90.56 mM, the “DMSO (mg/mL)Max Solubility” value [1] is listed as 35.00 mg/mL and the “water (mg/mL)Max Solubility” value ([1]; water) is listed as under 1 mg/mL.

Work on Verteporfin [reference compound] yielded a CC50 [2] of over 10 µM.

For `CC1(C)CCC(CN2CCN(c3ccc(C(=O)NS(=O)(=O)c4ccc(NCC5CCOCC5)c([N+](=O)[O-])c4)c(Oc4cnc5[nH]ccc5c4)c3)CC2)=C(c2ccc(Cl)cc2)C1` [Venetoclax], the “viral entry” value (SARS-CoV-2 pseudovirus [3]) is listed as “effective in reducing viral entry”, the IC50 (SARS-CoV-2 pseudovirus [3]) is listed as over 10 µM and the Cmax ([4]; 400 mg Oral (QD)) is listed as 1270 nM. The CC50 (in vitro) was over 10 µM and the “signal relative to Vehicle” value (SARS-CoV-2 pseudovirus [5]) was 0.618 and 0.6416 and 0.6544.

With `COC(=O)Nc1nc2cc(C(=O)c3ccc(F)cc3)ccc2[nH]1` [Flubendazole] the “ATP Glo” value ([2]; conc 3) was 0.991 and 1.045 and 1.023.

For `Cc1nc(Nc2ncc(C(=O)Nc3c(C)cccc3Cl)s2)cc(N2CCN(CCO)CC2)n1` [Dasatinib], the “viral entry” value (SARS-CoV-2 pseudovirus [3]) is given as “effective in reducing viral entry”, the IC50 (SARS-CoV-2 pseudovirus [3]) is given as over 10 µM and the Cmax ([4]; 140 mg Oral (QD)) is given as 307 nM. For the same molecule, the CC50 (in vitro) was over 10 µM and the “signal relative to Vehicle” value (SARS-CoV-2 pseudovirus [5]) was 0.6399 and 0.7584 and 0.6593.
